In patent publication US12631644B2, “Biomarker panel targeted to diseases due to multifactorial ontology of glycocalyx disruption” (Arterez, Inc., priority 2019, dated 2026):

Columns and labels:
[1] = test system: inflammation and plaque; assay: Average disease scores (aortic sinus histology) in high-fat diet mice, Example 1; assay type: in vivo, mouse; conditions: FIG. 9; per group and time point; gavage 150 μmol/kg
Protocol: For a pilot study, forty-eight 10-week old male C57/Bl6 mice were obtained from Jackson Laboratories. Three mice were raised from 6 weeks on a regular diet and served as controls, and the remaining 45 were raised on a 60% fat diet (D12451, DIO series diet, Opensource Diets). For a bacterial dosage test, sixteen 10-week old male C57/Bl6 mice were divided into four treatment groups and maintained on a normal diet.
3,3′,4,4′-Tetrachlorobiphenyl (PCB-77) was obtained from Neosyn Laboratories. 100 mg of the dry chemical was suspended in 15.22 ml of corn oil to deliver 150 μmol/kg in 0.2 ml per mouse. […]
The hearts were prepared as frozen sections: they were mounted in blocks, and 10 μm-thick sections were cut through the aortic valve, to yield 30 sections per mouse. […] Multiple 10-μm sections at the level of the aortic sinus were analyzed for the presence of Oil Red O lipid staining, plaque size, amount of fibrous tissue, and inflammation. The percentage of the lumen occupied by the first three features was calculated using Image Pro Plus. […] The level of inflammation in each section was scored on the following scale: 0=no inflammatory cells observed, 1=few macrophages with no giant cells, 2=foam cells present, 3=foam cells with cholesterol, 4=foam cells, giant cells, and cholesterol present. […]

[2] = molecular target: T1, TNF-α (Homo sapiens, UniProt P01375); conditions: humans; 2009 Atherosclerosis 202:296-303; cited from earlier work
T1 construct: host or cells: human subjects (in vivo, endogenous TNF-α)
T1 sequence (P01375 77-233 limits assumed): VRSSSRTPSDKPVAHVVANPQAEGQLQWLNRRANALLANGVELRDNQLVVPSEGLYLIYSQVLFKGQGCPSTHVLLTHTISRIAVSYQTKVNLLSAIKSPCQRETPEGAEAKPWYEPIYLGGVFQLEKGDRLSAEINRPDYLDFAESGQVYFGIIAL

Molecule	risk factor for producing inflammation and plaque (average disease scores) [1]	shedding of glycocalyx constituents, coagulation activation, vessel function [2]
Clc1ccc(-c2ccc(Cl)c(Cl)c2)cc1Cl [PCB77, 3,3′,4,4′-Tetrachlorobiphenyl]	most significant risk factor to producing inflammation and plaque	
etanercept		reduces the shedding of glycocalyx constituents, coagulation activation, and functional vessel function
